Experimental data published in US8696101B2, “Photopolymerizable inkjet black ink, and ink cartridge, inkjet printer and printed material using the ink, and method of preparing the ink” (Ricoh Company, Ltd., priority 2011, dated 2014).

Experiments:
[1] = skin sensitization test (LLNA method), OECD test guide line 429; assay type: in vivo; conditions: for Stimulation Index (SI value): photopolymerizable monomers used in clear inks B to K, SI less than 3 = no problem in skin sensitization
Description: The LLNA method is a skin sensitization test specified as OECD test guide line 429, and as shown on page 55 in “Functional Materials” Vol. 25, No. 9 published in September, 2005, the skin sensitization is determined to have no problem when Stimulation Index (SI value) showing a degree of the skin sensitization is less than 3.

[2] = evaluation taken from MSDS; cited from earlier work

Molecule | Stimulation Index (SI value) [1] | further results
C=CC(=O)OCC(C)(C)COC(=O)C=C [Neopentylglycol diacrylate, reference compound] | – | skin sensitization of photopolymerizable monomer (positive / negative grouping) ([1]; grouping printed in Table 1): Positive
Caprolactone-modified dipentaerythritolhexaacrylate | – | skin sensitization (from MSDS) [2]: Negative skin
Caprolactone-modified neopentylglycolhydroxypivalate ester | 0.9 | –
Polyethoxylated tetramethylolmethanetetraacrylate | 1.7 | –
Polyethyleneglycol#400 dimethacrylate | 1.3 | –
Polyethyleneglycol#600 dimethacrylate | 1.6 | –
Tricyclodecanedimethanoldimethacrylate | 1.3 | –
γ-butyrolactone methacrylate | 2.1 | –
